Assay results taken from ChEMBL document CHEMBL2176932, “De novo cyclic pseudopeptides containing aza-β3-amino acids exhibiting antimicrobial activities” (J Med Chem, 2012).
Values after ≈ are worked out from the molar mass of the structure shown.

Tests used:
[1] = Selectivity ratio of MHC for sheep RBC to MIC for Escherichia coli ATCC 25922; type: functional
[2] = Selectivity ratio of MHC for sheep RBC to MIC for Staphylococcus aureus ATCC 25923; type: functional
[3] = Selectivity ratio of HC50 for sheep RBC to MIC for Escherichia coli ATCC 25922; type: functional
[4] = Selectivity ratio of HC50 for sheep RBC to MIC for Staphylococcus aureus ATCC 25923; type: functional
[5] = Toxicity in sheep RBC assessed as hemolytic activity at 100 uM after 1 hr; type: cell-based, Ovis aries, Erythrocyte; conditions: sheep red blood cells, read-out: Activity
[6] = Toxicity in sheep RBC assessed as hemolytic activity after 1 hr; type: cell-based, Ovis aries, Erythrocyte; conditions: sheep red blood cells
[7] = system: Aeromonas caviae; assay: Antibacterial activity against Aeromonas caviae ATCC 15648 after 48 hrs by microtiter broth dilution method; type: functional; conditions: ATCC 15648, 48 h
[8] = system: Klebsiella aerogenes; assay: Antibacterial activity against Enterobacter aerogenes ATCC 13048 after 48 hrs by microtiter broth dilution method; type: functional; conditions: ATCC 13048, 48 h
[9] = system: Klebsiella oxytoca; assay: Antibacterial activity against Klebsiella oxytoca CIP 7932 after 48 hrs by microtiter broth dilution method; type: functional; conditions: CIP 7932, 48 h
[10] = system: Pseudomonas aeruginosa; assay: Antibacterial activity against Pseudomonas aeruginosa ATCC 27853 after 48 hrs by microtiter broth dilution method; type: functional; conditions: ATCC 27853, 48 h
[11] = system: Salmonella enterica; assay: Antibacterial activity against Salmonella enterica ATCC 13076 after 48 hrs by microtiter broth dilution method; type: functional; conditions: ATCC 13076, 48 h
[12] = system: Escherichia coli; assay: Antibacterial activity against Escherichia coli ATCC 25922 after 48 hrs by microtiter broth dilution method; type: functional; conditions: ATCC 25922, 48 h
[13] = system: Listeria monocytogenes; assay: Antibacterial activity against Listeria monocytogenes SOR 100 after 48 hrs by microtiter broth dilution method; type: functional; conditions: SOR 100, 48 h
[14] = system: Staphylococcus aureus; assay: Antibacterial activity against Staphylococcus aureus ATCC 25923 after 48 hrs by microtiter broth dilution method; type: functional; conditions: ATCC 25923, 48 h
[15] = system: Lactococcus garvieae; assay: Antibacterial activity against Lactococcus garvieae ATCC 43921 after 48 hrs by microtiter broth dilution method; type: functional; conditions: ATCC 43921, 48 h
[16] = system: Micrococcus luteus; assay: Antibacterial activity against Micrococcus luteus ATCC 10240 after 48 hrs by microtiter broth dilution method; type: functional; conditions: ATCC 10240, 48 h
[17] = system: Streptococcus equinus; assay: Antibacterial activity against Streptococcus equinus ATCC 5623 after 48 hrs by microtiter broth dilution method; type: functional; conditions: ATCC 5623, 48 h
[18] = system: Enterococcus faecalis; assay: Antibacterial activity against Enterococcus faecalis CIP 186 after 48 hrs by microtiter broth dilution method; type: functional; conditions: CIP 186, 48 h
[19] = system: Priestia megaterium; assay: Antibacterial activity against Bacillus megaterium ATCC 10778 after 48 hrs by microtiter broth dilution method; type: functional; conditions: ATCC 10778, 48 h
[20] = Toxicity in sheep RBC assessed as minimal hemolytic concentration after 1 hr; type: cell-based, Ovis aries; conditions: erythrocyte
[21] = Half life in bovine serum; type: ADME, cell-free, Bos taurus; conditions: cattle
[22] = Selectivity ratio of MHC for sheep RBC to MIC for Listeria monocytogenes SOR 100; type: functional

MIC [7] [µM] | MIC [8] [µM] | MIC [9] [µM] | MIC [10] [µM] | MIC [11] [µM] | MIC [12] [µM] | MIC [13] [µM] | MIC [14] [µM] | MIC [15] [µM] | MIC [16] [µM] | MIC [17] [µM] | MIC [18] [µM] | MIC [19] [µM] | Structure (SMILES) | Selectivity ratio [1] | Selectivity ratio [2] | Selectivity ratio [3] | Selectivity ratio [4] | hemolysis at 1 h, 100 µM [5] [%] | HC50 at 1 h [6] [µM] | MHC [20] [µM] | also measured
> 100 | 25 (≈ 24.4 µg/mL) | 25 (≈ 24.4 µg/mL) | 12.5 (≈ 12.2 µg/mL) | 100 (≈ 97.4 µg/mL) | 12.5 (≈ 12.2 µg/mL) | 1.56 (≈ 1.52 µg/mL) | 1.56 (≈ 1.52 µg/mL) | 3.12 (≈ 3.04 µg/mL) | 0.78 (≈ 0.76 µg/mL) | 1.56 (≈ 1.52 µg/mL) | 6.25 (≈ 6.09 µg/mL) | 0.78 (≈ 0.76 µg/mL) | CC(C)C[C@@H]1NC(=O)CN(Cc2ccc(-c3ccccc3)cc2)NC(=O)[C@H](CC(C)C)NC(=O)CN(Cc2ccc(-c3ccccc3)cc2)NC(=O)[C@H](CCCCN)NC(=O)CN(CCCCN)NC1=O | 0.12 | 1 | 1.2 | 9.6 | 90 | 15 |  | 
> 100 | 25 (≈ 21.5 µg/mL) | 50 (≈ 43.1 µg/mL) | 50 (≈ 43.1 µg/mL) | 50 (≈ 43.1 µg/mL) | 50 (≈ 43.1 µg/mL) | 12.5 (≈ 10.8 µg/mL) | 25 (≈ 21.5 µg/mL) | 50 (≈ 43.1 µg/mL) | 3.12 (≈ 2.69 µg/mL) | 6.25 (≈ 5.38 µg/mL) | 50 (≈ 43.1 µg/mL) | 3.12 (≈ 2.69 µg/mL) | CC(C)C[C@@H]1NC(=O)CN(Cc2ccc(-c3ccccc3)cc2)NC(=O)[C@H](CCCCN)NC(=O)CN(CCCCN)NC(=O)CN(Cc2ccc(-c3ccccc3)cc2)NC1=O | 0.5 | 1 | 2 | 4 | 30 | > 100 | 25 | 
> 100 | 12.5 (≈ 12.8 µg/mL) | 25 (≈ 25.5 µg/mL) | 50 (≈ 51 µg/mL) | 25 (≈ 25.5 µg/mL) | 25 (≈ 25.5 µg/mL) | 6.25 (≈ 6.38 µg/mL) | 25 (≈ 25.5 µg/mL) | 25 (≈ 25.5 µg/mL) | 3.12 (≈ 3.18 µg/mL) | 6.25 (≈ 6.38 µg/mL) | 50 (≈ 51 µg/mL) | 1.56 (≈ 1.59 µg/mL) | N=C(N)NCCC[C@@H]1NC(=O)CN(CC2CCCCC2)NC(=O)[C@H](Cc2c[nH]c3ccccc23)NC(=O)CN(Cc2ccc(F)cc2)NC(=O)[C@H](Cc2c[nH]c3ccccc23)NC(=O)CN(CCCCN)NC1=O |  | 4 | 4 | 4 | 2.5 | > 100 | 100 | half-life [21]: > 2 h; Selectivity ratio [22]: 16
